Source: article PMC4383003, “Transfer hydrogenation catalysis in cells as a new approach to anticancer drug design” (Nature Communications, 2015)
Where “and” joins values, the source holds several entries; their conditions need not be identical. Equal entries are not always repeated.

What was measured:
[1] = tested on: A2780 ovarian cancer cells; assay: Cell viability on co-administration of Ru complexes (1/3 x IC50) with formate or acetate; format: cell-based, human; settings: for Cell viability / Cell viability percentages: A2780, complex 1/3 x IC50, 24 h
Description: Cell viability assays were carried out with complexes 1–8 in A2780 ovarian cancer cells. These experiments were carried out as described above with the following modifications: a fixed concentration of each Ru complex equal to 1/3 × IC50 was used in co-administration with three different concentrations of sodium formate or sodium acetate (0.5, 1.0 and 2.0 mM). To prepare the stock solution of the drug, the complex was dissolved in 5% dimethylsulfoxide and diluted in a 1:1 mixture of 0.9% saline:cell culture medium. This stock was further diluted using RPMI-1640 until working concentrations were achieved. Separately, stock solutions of sodium formate or sodium acetate were prepared in saline. The complex and formate were added to each well independently, but within 5 min of each other.
Supplementary Table 7: Percent cell viability of A2780 ovarian cancer cells exposed to equipotent concentrations of ruthenium complexes 1-3 and 5-8 (1/3 x […]
The experiments included 48 h of pre-incubation and 72 h of drug recovery, both in drug-free medium at 310 K in a 5% CO2 humidified atmosphere. All the experiments were performed as duplicates of triplicates in independent experiments and the error bars were calculated as the standard deviation from the mean.
Supplementary Table 11: Cell viability (%) of A2780 ovarian cancer cells exposed […]
administered with different concentrations of sodium acetate (0, 0.5, 1 and 2 mM).
The experiments involved 48 h of pre-incubation and 72 h of drug recovery, both in […]
Cell viability percentages (%)
Complex Acetate concentration (mM)

[2] = tested on: A2780 ovarian cancer cells; assay: Ruthenium accumulation in cancer cells (ICP-MS); format: cell-based, human; settings: for Cell Ru: A2780, 1/3 x IC50, 24 h drug exposure, no recovery time; for Cell accum.: A2780, 24 h, 1/3 x IC50
Description: Briefly, 1.5 × 10^6 cells per well were seeded on a six-well plate. […] After this time, cells were washed, treated with trypsin-EDTA, counted and cell pellets were collected. Each pellet was digested overnight in concentrated nitric acid (73%) at 353 K; the resulting solutions were diluted using double-distilled water to give a final concentration of 5% HNO3 and the amount of Ru taken up by the cells was determined by ICP–MS. […]
Supplementary Table 3: Antiproliferative activity of complexes 1-8 in A2780 ovarian cancer cells and their cellular accumulation (expressed as ng Ru per million cells).
The latter experiments were carried out using equipotent concentrations of the […]
experiments were performed as duplicates of triplicates in independent experiments and the error bars were calculated as the standard deviation from the mean. […]

[3] = tested on: A2780 human ovarian cancer cells; assay: In vitro growth inhibition assay (SRB), A2780; format: cell-based
Description: A2780 human ovarian carcinoma and MRC5 human fetal lung fibroblasts were obtained from the European Collection of Cell Cultures. Both cell lines were grown in Roswell Park Memorial Institute medium (RPMI-1640) supplemented with 10% of fetal calf serum, 1% of 2 mM glutamine and 1% penicillin/streptomycin. All cells were grown as adherent monolayers at 310 K in a 5% CO2-humidified atmosphere and passaged at ca. 70–80% confluency.
The antiproliferative activity of complexes 1–8 was determined in A2780 ovarian cancer cells and MRC5 fibroblasts. Briefly, 96-well plates were used to seed 5,000 cells per well. The plates were left to pre-incubate with drug-free medium at 310 K for 48 h before adding different concentrations of the compounds to be tested. A drug exposure period of 24 h was allowed. After this, supernatants were removed by suction and each well was washed with PBS. A further 72 h were allowed for the cells to recover in drug-free medium at 310 K. The sulforhodamine B (SRB) assay was used to determine cell viability. IC50 values, as the concentration that causes 50% cell death, were determined as duplicates of triplicates in two independent sets of experiments and their s.d. were calculated.

CT-DNA = assay: Thermal stability (melting temperature) of CT-DNA by UV-Vis; format: binding, calf; settings: for Tm: CT-DNA, 1:3 complex:base pairs, 2 mM cacodylate pH 7.4, 2 h 310 K
Description: Supplementary Table 6: Melting temperature (Tm) of CT-DNA in the presence of 8 or complex 2 (ratio 1:3, complex: base pairs-DNA). The reactions were carried out in cacodylate buffer (2 mM, pH 7.4), and samples incubated for 2 h at 310 K. […]
a variation in melting temperature between free DNA and DNA in the presence of the corresponding complex. * […] from free DNA using a T-test analysis. ** p < 0.01 from free DNA using a T-test analysis […]
Thermal stability of CT-DNA
The melting temperature of CT-DNA in the presence and absence of complex 2 [(p-cym)Ru(TsEn)Cl] was determined by UV-Vis spectroscopy (Supplementary Table 6). Higher melting temperatures indicate increased stabilization of the DNA, which is the effect produced by DNA-intercalators and often by direct metal coordination to […]
the nucleobases.11 Destabilization of DNA can result in a decrease of the melting […]
In the presence of complex 8, the melting temperature of CT-DNA increased In agreement with the literature, 12 by 14 K, in 2 mM NaCl, 2 mM cacodylate buffer.
This increase is due to Ru binding to DNA as well as intercalation. 12 However, upon increasing the chloride concentration by ca. 10x (20 mM NaCl) the melting temperature of CT-DNA in the presence of complex 8, increased only by 7 K. This effect has previously been reported and it is attributed to the partial inhibition of hydrolysis, and, therefore, inhibition of coordination to DNA. 12, 13
Experiments performed in the presence of complex 2, in 2 mM cacodylate buffer and […]
NaCl, no decrease of the melting temperature was observed. […]

calf thymus DNA = assay: Interaction with calf thymus DNA (ethanol precipitation, ICP-MS of Ru); format: binding; settings: for free Ru in supernatant: CT-DNA, 1:3 complex:base pairs, 310 K
Description: Interaction with calf thymus DNA
Complex 2 was chosen as representative of the series. A stock solution of complex 2 (0.7 mM in 5 % acetonitrile/water) was prepared and aliquots of 66 μL were added to a solution of CT-DNA (final ratio 1:3 complex: base pairs-DNA) in water, 2 mM cacodylate buffer and 2 mM NaCl. The reaction mixture was incubated at 310 K, and aliquots of 300 μL were taken at different intervals during a period of 27 h. The DNA was then precipitated by addition of ethanol (700 μL, final concentration 70% v/v). Ru complexes which are strongly bound to CT-DNA will precipitate together with the DNA upon addition of ethanol, and, therefore the ruthenium concentration in the supernatant should decrease. However, no changes in the Ru concentration were detected by ICP-MS showing that the interaction between the complex 2 and DNA is weak (t = 0 h / 64.2 ± 0.7 µM, t = 24 h/ 65.1 ± 0 .3 µM free Ru). In contrast complex 8

[4] = Transfer hydrogenation of NAD+ to 1,4-NADH with formate, followed by 1H NMR
Description: Complexes 1–7 were dissolved in MeOH-d4/D2O (5:1 v/v, 1.4 mM, 4 ml). Solutions of sodium formate (35 mM, 4 ml) and NAD^+ in D2O (2.8 mM, 2 ml) were also prepared and incubated at 310 K. In a typical experiment, 200-μl aliquots of each solution were added to a 5-mm NMR tube and the pH* adjusted to 7.2±0.1 (total volume 0.635 ml, final concentrations: Ru complex 0.44 mM; NAD^+ 0.88 mM; formate 11.02 mM; molar ratio 1:2:25). ^1H NMR spectra were recorded at 310 K every 162 s until the completion of the reaction.
Molar ratios of NAD^+ and NADH were determined by integrating the peaks at 9.33 and 6.96 p.p.m. (NAD^+ and 1,4-NADH, respectively). The turnover number for the reaction was calculated as follows: […]
where In is the integral of the signal at n p.p.m. and [NAD^+]0 is the concentration of NAD^+ at the start of the reaction.

[5] = pKa* of aqua adducts of the complexes; format: physicochemical; settings: pKa value determined in deuterated solvent
Excerpt: Table 1 pKa* values for aqua adducts of catalysts 1–4 (and 8 for comparison) and turnover frequencies for transfer hydrogenation of NAD^+ using formate. | column: pKa*

9-ethylguanine = assay: Binding to model nucleobase 9-ethylguanine by 1H NMR; settings: D2O, pH* 7.2 ± 0.1, 310 K
Description: Supplementary Table 4: Binding constants for formation of 9-EtG adducts of complexes 1-4 determined by 1H NMR. The experiments were performed in D2O, pH* 7.2 ± 0.1 and 310 K. Equilibrium was reached by the time the first 1H NMR spectrum was recorded (< 10 min). […]
DNA is believed to be the main target for [(bip)Ru(en)Cl]+ (8). Due to the structural similarity of the complexes 1-5 with complex 8, their binding to DNA was […]
Interaction with nucleobases
Initially, model nucleobases, 9-ethylguanine and 9-methyladenine were reacted with complexes 1-4 in D2O, 310 K and pH* 7.2 ± 0.1. The binding of the complexes to 9-EtG or 9-MeA was monitored by 1H-NMR spectroscopy. Peaks for the 9-EtG adducts were observed by the time the first spectrum was recorded (< 5 min after mixing), […]
equilibrium was reached rapidly. The binding constants for formation of 9-EtG adducts determined by NMR were between 60 and 106 mM-1 (Supplementary Table 4). These values are in the same range as that from the ethylenediamine complex [(bip)Ru(en)Cl]+ (K9-EtG= 60.3 mM-1),2 which also binds strongly to DNA.3, 4 The high resolution mass spectrum confirmed the formation of [(η6-arene)Ru(XEn)(9-EtG)]+ (Supplementary Table 5). The interaction of complexes 1-4 with 9-MeA was also investigated, but no reaction was detected by 1H-NMR.
It is well established that N7 of guanine is the preferred nucleotide binding site for many transition metals ions. 2-8 Furthermore, strong and selective binding to N7 of 9-EtG, has been observed for [(η6-arene)Ru(en)Cl]+.3, 4 A pH* titration of […]

[6] = A2780, 24 h drug exposure, no formate

| SMILES | Cell Ru [2] | Cell viability ([1]; formate 0 mM) | Cell viability ([1]; formate 0.5 mM) | Cell viability ([1]; formate 1 mM) | Cell viability ([1]; formate 2 mM) | IC50 ([3]; A2780, Supplementary Table 3) | further results |
| --- | --- | --- | --- | --- | --- | --- | --- |
| O=C[O-].[Na+] [formate, sodium formate] |  |  |  |  |  |  | toxicity of formate itself to the cells ([1]; A2780, 0 to 2 mM): non-toxic |
| CS(=O)(=O)[N-]CCN.[Cl-].[Ru+2].c1ccc(-c2ccccc2-c2ccccc2)cc1 [Complex 5, [(o-terp)Ru(MsEn)Cl]] | 2.8 ± 0.3 ng x 106 cells | 73.59 ± 0.04% | 71.9 ± 0.4% | 44.2 ± 0.2% | 5.8 ± 0.6% | 12.4 ± 0.9 µM | Cell accum. [2]: 2.8 ng Ru/10^6 cells |
| N.N.[Cl][Pt][Cl] [cisplatin, reference compound] |  |  |  |  |  |  | IC50 [3, 6]: 1.2 µM |
| NCCN.[Cl-].[Ru+2].c1ccc(-c2ccccc2)cc1 [Complex 8, [(bip)Ru(en)Cl]^+, reference compound] |  |  | 71 ± 1% | 61 ± 1% | 39 ± 1% and ~39% | 2.17 ± 0.08 µM | increase of melting temperature of CT-DNA (CT-DNA; 2 mM NaCl, 2 mM cacodylate buffer): -259 °C; increase of melting temperature of CT-DNA (CT-DNA; 20 mM NaCl): -266 °C; Tm (CT-DNA; 2 mM NaCl): 63.8 ± 0.8 °C; Tm (CT-DNA; 20 mM NaCl): 67.1 ± 0.6 °C; ΔTm (CT-DNA; versus free DNA, 20 mM NaCl): 7.9 °C; free Ru in supernatant (calf thymus DNA; t = 0 h): 58.3 ± 0.3 µM; free Ru in supernatant (calf thymus DNA; t = 24 h): 48.5 ± 0.6 µM; binding to calf thymus DNA (calf thymus DNA; ICP-MS of Ru, up to 27 h at 310 K, 1:3 complex:DNA base pairs, 2 mM cacodylate pH 7.4, 2 mM NaCl): bind strongly; Cell viability percentages ([1]; acetate 0 mM): 75.4 ± 2%; Cell viability percentages ([1]; acetate 0.5 mM): 73.1 ± 0.8%; Cell viability percentages ([1]; acetate 1 mM): 72 ± 1%; IC50 [3, 6]: 2.2 µM |
| NCC[N-]S(=O)(=O)c1ccc(C(F)(F)F)cc1.[Cl-].[Ru+2].c1ccc(-c2ccccc2-c2ccccc2)cc1 [Complex 7, [(o-terp)Ru(TfEn)Cl]] | 2.4 ± 0.3 ng x 106 cells | 40 ± 2% | 20.8 ± 0.6% | 11.9 ± 0.6% | 2.5 ± 0.7% | 21.2 ± 0.1 µM | Cell accum. [2]: 2.4 ng Ru/10^6 cells; decrease in cell survival ([1]; A2780, formate increased from 0 to 2 mM): ca. 16 fold |
| Cc1ccc(S(=O)(=O)[N-]CCN)cc1.[Cl-].[Ru+2].c1ccc(-c2ccccc2-c2ccccc2)cc1 [Complex 6, [(o-terp)Ru(TsEn)Cl]] | 2.1 ± 0.4 ng x 106 cells | 72.8 ± 0.9% | 59 ± 3% | 43.6 ± 1.4% | 22.2 ± 0.8% | 15.8 ± 0.8 µM |  |
| Cc1ccc(C(C)C)cc1.NCC[N-]S(=O)(=O)c1ccc([N+](=O)[O-])cc1.[Cl-].[Ru+2] [Complex 4, [(p-cym)Ru(NO2En)Cl]] |  |  |  |  |  | 14.7 ± 0.6 µM | time for completion of the catalytic reaction ([4]; 6 mol equiv of NAD+): 20.5 min; TOF D2O/MeOH-d4 ([4]; 23% MeOH-d4/77% D2O, NAD+ 2 mol equiv, formate 25 mol equiv, 310 K, pH* 7.2): 9.6 ± 0.3 h⁻¹; TOF D2O ([4]; D2O, NAD+ 2 mol equiv, formate 25 mol equiv, 310 K, pH* 7.2): 4.1 ± 0.1 h⁻¹; pKa* [5]: 9.56±0.04; Binding constant for formation of 9-EtG adducts (9-ethylguanine): 92.8 ± 1.0 mM⁻¹ |
